Data taken from patent EP1229026A1, “ALKOXYIMINOALKANOIC ACID DERIVATIVES” (Takeda Chemical Industries, Ltd., priority 1999, dated 2001).

How the values were obtained:
[1] = system: KKA^y mice; assay: Hypoglycemic and hypolipidemic (hypotriglyceridemic) actions in mice; type: in vivo; details: four days; for Hypoglycemic action (%): percent decrease of plasma glucose vs non-administration group (100%); for Hypolipidemic action (%): percent decrease of plasma triglyceride vs non-administration group (100%)
Method: Test compounds were mixed in a powdery diet (CE-2, Japan Clea) at the concentration of 0.01% (compound of Example 2) or 0.005% (compound of Example 4), and freely given to KKA^y mice (11 to 12 weeks old, 5 mice per group), a model of obesity and type II diabetes, for four days. During this period, water was given freely. Blood was sampled from orbital venous plexus, and glucose and triglyceride levels in plasma separated from blood were determined enzymatically using L type Wako Glu2 (Wako Pure Chemical Industries, Ltd.) or L type Wako TG•H (Wako Pure Chemical Industries, Ltd.), respectively.

[2] = biological target: T1, PPARγ-RXRα heterodimer (Homo sapiens, UniProt P37231); assay: PPARγ-RXRα heterodimer ligand activity (luciferase reporter in PPARγ:RXRα:4ERPP/CHO-K1 cells); type: cell-based; details: concentration for 50% of the maximum fold induction of luciferase activity, 48 hours
T1 construct: 1.4 kb DNA fragment containing PPARγ gene was recovered from the gel; expressed in transfected cells; host or cells: CHO-K1
T1 sequence (P37231 1-477 isoform P37231-2): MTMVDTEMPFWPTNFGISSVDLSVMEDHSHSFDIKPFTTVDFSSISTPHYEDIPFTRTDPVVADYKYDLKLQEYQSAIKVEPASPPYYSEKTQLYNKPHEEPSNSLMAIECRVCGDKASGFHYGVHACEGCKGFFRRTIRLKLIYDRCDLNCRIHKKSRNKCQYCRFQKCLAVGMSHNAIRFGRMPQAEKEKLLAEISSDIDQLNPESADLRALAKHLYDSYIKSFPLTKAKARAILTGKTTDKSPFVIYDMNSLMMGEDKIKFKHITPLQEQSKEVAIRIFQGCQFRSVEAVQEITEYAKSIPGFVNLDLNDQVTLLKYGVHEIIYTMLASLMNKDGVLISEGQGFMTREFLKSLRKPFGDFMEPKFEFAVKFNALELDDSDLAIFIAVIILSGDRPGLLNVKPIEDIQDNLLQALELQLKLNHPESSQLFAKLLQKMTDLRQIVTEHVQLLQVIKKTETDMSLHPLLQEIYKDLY
T1 sequence (P19793 1-462 partner): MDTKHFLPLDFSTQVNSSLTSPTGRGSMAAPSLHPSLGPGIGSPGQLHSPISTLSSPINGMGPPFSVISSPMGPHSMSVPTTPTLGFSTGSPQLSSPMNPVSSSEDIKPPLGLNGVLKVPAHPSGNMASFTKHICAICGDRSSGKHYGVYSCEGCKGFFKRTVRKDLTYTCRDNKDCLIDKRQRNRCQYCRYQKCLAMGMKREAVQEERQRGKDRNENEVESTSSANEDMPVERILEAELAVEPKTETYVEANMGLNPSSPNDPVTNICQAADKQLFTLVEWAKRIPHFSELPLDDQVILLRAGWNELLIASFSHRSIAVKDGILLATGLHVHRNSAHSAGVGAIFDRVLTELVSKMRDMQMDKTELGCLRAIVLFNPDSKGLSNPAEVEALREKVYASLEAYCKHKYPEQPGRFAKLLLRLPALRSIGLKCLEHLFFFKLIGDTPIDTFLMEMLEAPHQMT
Method: A PPARγ:RXRα:4ERPP/CHO-K1 cells obtained in Reference Example 5 to be described later were cultured in HAM F12 medium (produced by NISSUI PHARMACEUTICAL CO., LTD.) containing 10% fetal bovine serum (produced by Life Technologies, Inc., USA) and then inoculated to a 96-well white plate (produced by Corning Costar Corporation, USA) at the density of 2×10^4 cells/well, and cultured in a CO2 gas incubator at 37°C overnight.
After washing the 96 well white plate with PBS (phosphate-buffered saline), 90 µl of HAM F12 medium containing 0.1% fatty acid-free bovine serum albumin (BSA) and 10 µl of test compound were added, which was followed by culture in a CO2 gas incubator at 37°C for 48 hours. After removing the medium, 40 µl of PIKKAGENE 7.5 (produced by Wako Pure Chemical Industries, Ltd.) was added. After stirring, the luciferase activity was determined using Lumistar (produced by BMG Labtechnologies GmbH, Germany).
A fold induction was calculated based on the luciferase activity of each test compound where the luciferase activity in the test compound non-administration group was taken as 1. The values of the test compound concentration and the fold induction were analyzed using PRISM 2.01 (produced by GraphPad Software Inc., USA) to calculate the EC50 values, the effective concentration of the test compound for 50% of the maximum fold induction. […]

[3] = system: KKA^y mice; assay: Total cholesterol lowering action and plasma anti-arteriosclerosis index-increasing action in mice; type: in vivo; details: 0.005% in powdery diet, four days
Method: Test compound was mixed in a powdery diet (CE-2, Japan Clea) at the concentration of 0.005%, and freely given to KKA^y mice (12 weeks old, 5 mice per group), a model of obesity and type II diabetes, for four days. During this period, water was given freely. Blood was sampled from orbital venous plexus and plasma was separated and analyzed for components. Total cholesterol levels were determined using L type Wako Cholesterol (Wako Pure Chemical Industries, Ltd.). Precipitation reagent for apoB containing lipoprotein (Wako Pure Chemical Industries, Ltd.) was added to a part of the plasma to allow precipitation of non-HDL lipoprotein, and cholesterol (HDL cholesterol) in the resulting supernatant was determined. The plasma anti-arteriosclerosis index [(HDL cholesterol/total cholesterol)×100] was calculated using these cholesterol levels.
In the Table, "Total cholesterol lowering action (%)" represents the percent reduction (%) of total cholesterol level in the test compound administration group, when the total cholesterol level in the test compound non-administration group is taken as 100%. "Plasma anti-arteriosclerosis index-increasing action (%)" represents a percent increase (%) of plasma anti-arteriosclerosis index in the test compound administration group, when the plasma anti-arteriosclerosis index in the test compound non-administration group-is taken as 100%.

Row | Compound | Hypoglycemic action (%) ([1]; 0.005% in powdery diet) | Hypolipidemic action (%) ([1]; 0.005% in powdery diet) | EC50 [2] [nM] | Plasma anti-arteriosclerosis index-increasing action (%) ([3]; percent increase of index [(HDL cholesterol/total cholesterol)×100] vs non-administration group (100%)) | Total cholesterol lowering action (%) ([3]; percent reduction of total cholesterol level vs non-administration group (100%)) | Hypoglycemic action (%) ([1]; 0.01% in powdery diet) | Hypolipidemic action (%) ([1]; 0.01% in powdery diet)
1 | Cc1oc(-c2ccccc2)nc1COc1ccc(CO/N=C(\CCC(=O)O)c2ccccc2)cn1 [Example 4, (E)-4-[6-(5-methyl-2-phenyl-4-oxazolylmethoxy)-3-pyridylmethoxyimino]-4-phenylbutyric acid] | 54 | 90 | 1.4 | 39 | 22 | – | –
2 | Cc1oc(-c2ccccc2)nc1COc1ccc2cc(CO/N=C(\CCC(=O)O)c3ccccc3)ccc2c1 [Example 2, (E)-4-[6-(5-methyl-2-phenyl-4-oxazolylmethoxy)-2-naphthylmethoxyimino]-4-phenylbutyric acid] | – | – | 1600 | – | – | 30 | 22
